pIC50: −log10 of the molar value.
target: human TrkA (Homo sapiens (Human), UniProt P04629); experiment: Human TrkA inhibition assay (Test Example 2); format: biochemical; settings: Table 155, human TrkA inhibition; read-out: IC50
Method in brief: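 Mobility-shift readout of phosphorylated versus unphosphorylated fluorescent peptide gave conversion ratio, normalized to DMSO and no-enzyme wells; IC50 by logistic fit of 10- or 15-point 3-fold dilutions. Conditions: 1 nmol/L enzyme, 15 min compound preincubation, then 500 μmol/L ATP plus 1.5 μmol/L peptide, 120 min, 37 °C.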

Sequence of human TrkA (P04629 440-796): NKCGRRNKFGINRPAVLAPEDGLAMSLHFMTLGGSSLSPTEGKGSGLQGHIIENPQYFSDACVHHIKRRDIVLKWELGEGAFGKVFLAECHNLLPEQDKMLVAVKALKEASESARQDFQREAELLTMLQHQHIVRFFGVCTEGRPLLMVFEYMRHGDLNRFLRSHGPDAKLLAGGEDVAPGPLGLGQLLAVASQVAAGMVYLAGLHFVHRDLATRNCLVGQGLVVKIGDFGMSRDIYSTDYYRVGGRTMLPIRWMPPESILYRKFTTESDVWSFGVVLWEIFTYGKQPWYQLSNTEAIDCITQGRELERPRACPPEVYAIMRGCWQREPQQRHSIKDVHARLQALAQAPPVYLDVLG

pIC50	SMILES
> 7.00	COCCN1C[C@@H](NC(=O)Nc2c(C)c(-c3cnc(N4CCN(C)C(=O)C4)nc3)nn2-c2ccccc2)[C@H](c2ccnc(F)c2)O1 (racemic) [Compound I-488]
> 7.00	COCCN1C[C@@H](NC(=O)Nc2c(C)c(-c3cnc(N4CC(OC)C4)nc3)nn2-c2ccccc2)[C@H](c2ccnc(F)c2)O1 (racemic) [Compound I-489]
> 7.00	COCCN1C[C@@H](NC(=O)Nc2c(C)c(-c3cnc4c(c3)c(N3CCN(C)CC3)nn4C)nn2-c2ccccc2)[C@H](c2ccnc(F)c2)O1 (racemic) [Compound I-490]
> 7.00	COCCN1C[C@@H](NC(=O)Nc2c(C)c(-c3cnc4c(c3)c(N3CCCC3)nn4C)nn2-c2ccccc2)[C@H](c2ccnc(F)c2)O1 (racemic) [Compound I-491]
> 7.00	COCCN1C[C@@H](NC(=O)Nc2c(C)c(-c3ccn(C)c(=O)c3)nn2-c2ccccc2)[C@H](c2ccnc(F)c2)O1 (racemic) [Compound I-495]
> 7.00	COCCN1C[C@@H](NC(=O)Nc2c(C)c(-c3ccc(=O)n(C)c3)nn2-c2ccccc2)[C@H](c2ccnc(F)c2)O1 (racemic) [Compound I-496]
> 7.00	COCCN1C[C@@H](NC(=O)Nc2c(C)c(OCc3cc(OC)ccn3)nn2-c2ccccc2)[C@H](c2ccnc(F)c2)O1 (racemic) [Compound I-501]
> 7.00	COCCN1C[C@@H](NC(=O)Nc2c(C)c(OCC3CC3)nn2-c2ccccc2)[C@H](c2ccnc(F)c2)O1 (racemic) [Compound I-502]
> 7.00	COCCN1C[C@@H](NC(=O)Nc2c(C)c(OCC3COC3)nn2-c2ccccc2)[C@H](c2ccnc(F)c2)O1 (racemic) [Compound I-503]
> 7.00	COCCN1C[C@@H](NC(=O)Nc2c(C)c(-c3cnc(N4CCNOCC4)nc3)nn2-c2ccccc2)[C@H](c2ccnc(F)c2)O1 (racemic) [Compound I-507]
> 7.00	COCCOc1ncc(-c2nn(-c3ccccc3)c(NC(=O)N[C@@H]3CN(CCOC)O[C@H]3c3ccnc(F)c3)c2C)cn1 (racemic) [Compound I-511]
> 7.00	COCCN1C[C@@H](NC(=O)Nc2c(C)c(-c3cnc(C4CCOCC4)nc3)nn2-c2ccccc2)[C@H](c2ccnc(F)c2)O1 (racemic) [Compound I-513]

SMILES	pIC50
COCCN1C[C@@H](NC(=O)Nc2c(C)c(-c3cnc(N4C[C@H]5C[C@@H](C4)O5)nc3)nn2-c2ccccc2)[C@H](c2ccnc(F)c2)O1 (racemic) [Compound I-487]	> 7.00

same assay, conditions: Table 156, human TrkA inhibition; read-out: IC50

pIC50	SMILES
> 7.00	COCCN1C[C@@H](NC(=O)Nc2c(C)c(-c3cnnc(OC)c3)nn2-c2ccccc2)[C@H](c2ccnc(F)c2)O1 (racemic) [Compound I-515]
> 7.00	COCCN1C[C@@H](NC(=O)Nc2c(C)c(-c3cnc4occc4c3)nn2-c2ccccc2)[C@H](c2ccnc(F)c2)O1 (racemic) [Compound I-517]
> 7.00	COCCN1C[C@@H](NC(=O)Nc2c(C)c(C)nn2-c2ccccc2)[C@H](c2ccnc(F)c2)O1 (racemic) [Compound I-522]
> 7.00	CCOc1nn(-c2ccccc2)c(NC(=O)N[C@@H]2CN(CCOC)O[C@H]2c2ccnc(F)c2)c1C (racemic) [Compound I-523]
> 7.00	COCCN1C[C@@H](NC(=O)Nc2c(C)c(-c3cnc(NCC(F)(F)F)nc3)nn2-c2ccccc2)[C@H](c2ccnc(F)c2)O1 (racemic) [Compound I-524]
> 7.00	COc1ncc(-c2nn(-c3ccccc3)c(NC(=O)N[C@@H]3CN(CCF)O[C@H]3c3ccc(F)c(F)c3)c2C)cn1 (racemic) [Compound I-525]
> 7.00	COc1ncc(-c2nn(-c3ccccc3)c(NC(=O)N[C@@H]3CN(C(C)C)O[C@H]3c3ccc(F)c(F)c3)c2C)cn1 (racemic) [Compound I-527]
> 7.00	COCCN1C[C@@H](NC(=O)Nc2c(C)c(-c3cnc(CN(C)C)nc3)nn2-c2ccccc2)[C@H](c2ccc(F)c(F)c2)O1 (racemic) [Compound I-528]
> 7.00	COCCN1C[C@@H](NC(=O)Nc2c(C)c(-c3ccnc(C)c3)nn2-c2ccccc2)[C@H](c2ccnc(F)c2)O1 (racemic) [Compound I-529]
> 7.00	COCCN1C[C@@H](NC(=O)Nc2c(C)c(-c3cnc4c(c3)CCO4)nn2-c2ccccc2)[C@H](c2ccnc(F)c2)O1 (racemic) [Compound I-530]
> 7.00	COCCN1C[C@@H](NC(=O)Nc2c(C)c(-c3cnc(N4CCC(N(C)C)CC4)nc3)nn2-c2ccccc2)[C@H](c2ccnc(F)c2)O1 (racemic) [Compound I-532]
> 7.00	COCCN1C[C@@H](NC(=O)Nc2c(C)c(C(F)(F)F)nn2-c2ccccc2)[C@H](c2ccnc(F)c2)O1 (racemic) [Compound I-534]
> 7.00	CCN1C[C@@H](NC(=O)Nc2c(C)c(-c3cnc4c(c3)oc(=O)n4C)nn2-c2ccccc2)[C@H](c2ccc(F)c(F)c2)O1 (racemic) [Compound I-539]
> 7.00	CCN1C[C@@H](NC(=O)Nc2c(C)c(-c3cnc(N4CCN(C)CC4)nc3)nn2-c2ccccc2)[C@H](c2ccc(F)c(F)c2)O1 (racemic) [Compound I-540]
> 7.00	CCOc1nn(-c2ccccc2)c(NC(=O)N[C@@H]2CN(CC)O[C@H]2c2ccc(F)cc2)c1C (racemic) [Compound I-541]
> 7.00	CCOc1nn(-c2ccccc2)c(NC(=O)N[C@@H]2CN(CC)O[C@H]2c2ccc(F)c(F)c2)c1C (racemic) [Compound I-542]
> 7.00	CCN1C[C@@H](NC(=O)Nc2c(C)c(-c3ccn(C)c(=O)c3)nn2-c2ccccc2)[C@H](c2ccc(F)c(F)c2)O1 (racemic) [Compound I-543]

pIC50	SMILES
> 7.00	CCN1C[C@@H](NC(=O)Nc2c(C)c(-c3cnc(OC)c(C(=O)NC4CCOCC4)c3)nn2-c2ccccc2)[C@H](c2ccc(F)c(F)c2)O1 (racemic) [Compound I-545]
> 7.00	CNC(=O)c1cc(-c2nn(-c3ccccc3)c(NC(=O)N[C@@H]3CN(CCF)O[C@H]3c3ccc(F)c(F)c3)c2C)cnc1OC (racemic) [Compound I-550]
> 7.00	CNC(=O)c1cc(-c2nn(-c3ccccc3)c(NC(=O)N[C@@H]3CN(CC(F)F)O[C@H]3c3ccc(F)c(F)c3)c2C)cnc1OC (racemic) [Compound I-551]
> 7.00	COCCN1C[C@@H](NC(=O)Nc2c(C)c(-c3ccc(OC)cc3)nn2-c2ccccc2)[C@H](c2ccnc(F)c2)O1 (racemic) [Compound I-554]
> 7.00	CCN1C[C@@H](NC(=O)Nc2c(C)c(OCC3CCNCC3)nn2-c2ccccc2)[C@H](c2ccc(F)c(F)c2)O1 (racemic) [Compound I-559]
> 7.00	Cc1c(OCC2CCNCC2)nn(-c2ccccc2)c1NC(=O)N[C@@H]1CN(CCF)O[C@H]1c1ccc(F)c(F)c1 (racemic) [Compound I-560]
> 7.00	Cc1c(OCC2CCNCC2)nn(-c2ccccc2)c1NC(=O)N[C@@H]1CN(CC(F)F)O[C@H]1c1ccc(F)c(F)c1 (racemic) [Compound I-561]
> 7.00	CCN1C[C@@H](NC(=O)Nc2c(C)c(OCC3CCNCC3)nn2-c2ccccc2)[C@H](c2ccc(F)cc2)O1 (racemic) [Compound I-562]
> 7.00	CCN1C[C@@H](NC(=O)Nc2c(C)c(OCC3CCN(C(C)=O)CC3)nn2-c2ccccc2)[C@H](c2ccc(F)c(F)c2)O1 (racemic) [Compound I-563]
> 7.00	CC(=O)N1CCC(COc2nn(-c3ccccc3)c(NC(=O)N[C@@H]3CN(CCF)O[C@H]3c3ccc(F)c(F)c3)c2C)CC1 (racemic) [Compound I-564]
> 7.00	CC(=O)N1CCC(COc2nn(-c3ccccc3)c(NC(=O)N[C@@H]3CN(CC(F)F)O[C@H]3c3ccc(F)c(F)c3)c2C)CC1 (racemic) [Compound I-565]
> 7.00	CCN1C[C@@H](NC(=O)Nc2c(C)c(OCC3CCN(C(C)=O)CC3)nn2-c2ccccc2)[C@H](c2ccc(F)cc2)O1 (racemic) [Compound I-566]
> 7.00	Cc1c(OCC2CCN(C)CC2)nn(-c2ccccc2)c1NC(=O)N[C@@H]1CN(CCF)O[C@H]1c1ccc(F)c(F)c1 (racemic) [Compound I-567]
> 7.00	Cc1c(OCC2CCN(C)CC2)nn(-c2ccccc2)c1NC(=O)N[C@@H]1CN(CC(F)F)O[C@H]1c1ccc(F)c(F)c1 (racemic) [Compound I-568]
> 7.00	CCN1C[C@@H](NC(=O)Nc2c(C)c(OCC3CCN(C)CC3)nn2-c2ccccc2)[C@H](c2ccc(F)cc2)O1 (racemic) [Compound I-569]
> 7.00	CCN1C[C@@H](NC(=O)Nc2c(C)c(-c3cnc(OC)c(C(=O)NC)c3)nn2-c2ccccc2)[C@H](c2ccc(F)cc2)O1 (racemic) [Compound I-570]
> 7.00	CNC(=O)c1cc(-c2nn(-c3ccccc3)c(NC(=O)N[C@@H]3CN(CC(F)(F)F)O[C@H]3c3ccc(F)c(F)c3)c2C)cnc1OC (racemic) [Compound I-571]

same assay, conditions: Table 157, human TrkA inhibition; read-out: IC50

pIC50	SMILES
> 7.00	COCCN1CC(NC(=O)Nc2c(C)c(-c3cnc(N4CC5(CCO5)C4)nc3)nn2-c2ccccc2)C(c2ccnc(F)c2)O1 (racemic) [Compound I-581]
> 7.00	COCCN1C[C@@H](NC(=O)Nc2c(C)c(-c3cnc(N4CC(N(C)C)C4)nc3)nn2-c2ccccc2)[C@H](c2ccnc(F)c2)O1 (racemic) [Compound I-582]
> 7.00	COCCN1C[C@@H](NC(=O)Nc2c(C)c(-c3cnc(N4CC(N5CCOCC5)C4)nc3)nn2-c2ccccc2)[C@H](c2ccnc(F)c2)O1 (racemic) [Compound I-583]
> 7.00	COCCN1C[C@@H](NC(=O)Nc2c(C)c(-c3cnc(N(C)CCOC)nc3)nn2-c2ccccc2)[C@H](c2ccnc(F)c2)O1 (racemic) [Compound I-588]
> 7.00	COCCN1C[C@@H](NC(=O)Nc2c(C)c(-c3cnc(N(C)CCCN(C)C)nc3)nn2-c2ccccc2)[C@H](c2ccnc(F)c2)O1 (racemic) [Compound I-589]

same assay, conditions: human TrkA 1 nmol/L, ATP 500 μmol/L, 120 min at 37° C.; read-out: IC50 values (TrkA phosphorylation inhibition)

pIC50	SMILES
7.66	COc1ncc(-c2nn(-c3ccccc3)c(NC(=O)N[C@@H]3CN(CC(F)F)O[C@H]3c3ccc(F)c(F)c3)c2C)cn1 (racemic) [Compound I-526]
